System: HDAC (HeLa cell nuclear extract, a mosaic of HDAC enzymes)
Assay: In vitro fluorescent histone deacetylase assay (Biomol HDAC fluorescent activity kit)
Format: biochemical
Details: compound concentration 100 μM; HeLa cell nuclear extract as HDAC source; substrate 50 μM, 10 min, room temperature
Description: Histone deacetylase (HDAC) activity assays were performed using the HDAC fluorescent activity assay/drug discovery kit (Biomol Research Laboratories, Plymouth Meeting, Pa.) essentially according to the manufacturer's instructions. The included HeLa cell nuclear extract, which contains a mosaic of HDAC enzymes and other nuclear factors, was used as the source of HDAC activity. The final substrate concentration in the assay mixture was 50 μM. The reaction was allowed to proceed for 10 min at room temperature before stopping the reaction. Test compounds were prepared as 20 mM stock solutions in DMSO (Molecular Biology grade, Sigma-Aldrich Co., St. Louis, Mo.) and stored at −70° C. Serial dilutions of test compounds were prepared in assay buffer immediately prior to testing. DMSO was determined in a separate trial to have no significant effect on the activity of this assay at concentrations up to 5%; the final DMSO concentration in the wells was no more than 2% and therefore DMSO effects were safely neglected. Assays were performed in white polystyrene 96-well half-area assay plates (Corning, Corning, N.Y.) and measured on a Wallace 1420 fluorescent plate reader (Wallac Oy, Turku, Finland) with an excitation wavelength of 355 nm, an emission wavelength of 460 nm, and a 1 sec signal averaging time.

For `O=C(NO)c1cnc(N2CCN(S(=O)(=O)c3cc4ccccc4s3)CC2)s1` [Example 243, 2-[4-(2-benzothiphenesulfonyl)-piperazin-1-yl]-thiazole-5-carboxylic acid hydroxyamide], the “% inhibition HDAC @ 100 μM” value was 99%.
With `CSc1nccc(-c2ccc(S(=O)(=O)N3CCN(c4ncc(C(=O)NO)s4)CC3)s2)n1` [Example 245, 2-[4-(2-{2-methylthiopyrimidine-4-yl}-5-thiophenesulfonyl)-piperazin-1-yl]-thiazole-5-carboxylic acid hydroxyamide] the “% inhibition HDAC @ 100 μM” value was 95%.
For `O=C(NO)c1cnc(N2CCN(S(=O)(=O)c3ccc4nsnc4c3)CC2)s1` [Example 246, 2-[4-(2,1,3-benzothiadiazole-5-sulfonyl)-piperazin-1-yl]-thiazole-5-carboxylic acid hydroxyamide], the “% inhibition HDAC @ 100 μM” value was 98%.
With `O=C(NO)c1cnc(N2CCN(S(=O)(=O)c3ccc(Oc4ccccc4)nc3)CC2)s1` [Example 247, 2-[4-(2-phenoxypyridine-5-sulfonyl)-piperazin-1-yl]-thiazole-5-carboxylic acid hydroxyamide] the “% inhibition HDAC @ 100 μM” value was 96%.
`O=C(NO)c1cnc(N2CCN(S(=O)(=O)c3cccc(-c4ccccc4)c3)CC2)s1` [Example 251, 2-[4-(3-biphenylsulfonyl)piperazin-1-yl]-thiazole-5-carboxylic acid hydroxyamide] was tested, and the “% inhibition HDAC @ 100 μM” value was 100%.
In the case of `CCCCS(=O)(=O)N1CCN(c2ncc(C(=O)NO)s2)CC1` [Example 253, 2-[4-(n-butylsulfonyl)-piperazin-1-yl]-thiazole-5-carboxylic acid hydroxyamide], the “% inhibition HDAC @ 100 μM” value is reported as 94%.
For `O=C(NO)c1cnc(N2CCN(S(=O)(=O)c3ccc(Br)s3)CC2)s1` [Example 255, 2-{4-[(5-bromothien-2-yl)sulfonyl]piperazin-1-yl}-N-hydroxy-1,3-thiazole-5-carboxamide], the “% inhibition HDAC @ 100 μM” value was 29%.
In the case of `O=C(NO)c1cnc(N2CCN(S(=O)(=O)c3ccc(-c4ccc5c(c4)OCO5)cc3)CC2)s1` [Example 260, 2-(4-{[4-(1,3-benzodioxol-5-yl)phenyl]sulfonyl}piperazin-1-yl)-1,3-thiazole-5-carboxylic acid hydroxyamide], the “% inhibition HDAC @ 100 μM” value is reported as 99%.
For `O=C(NO)c1cnc(N2CCN(S(=O)(=O)c3ccc(-c4cccc(F)c4)cc3)CC2)s1` [Example 261], the “% inhibition HDAC @ 100 μM” value was 95%.
For `O=C(NO)c1cnc(N2CCN(S(=O)(=O)c3ccc(-c4cccc(CN5CCCCC5)c4)cc3)CC2)s1` [Example 273], the “% inhibition HDAC @ 100 μM” value was 100%.
With `O=C(NO)c1cnc(N2CCN(S(=O)(=O)c3ccc(-c4ccsc4CN4CCCC4)cc3)CC2)s1` [Example 282, 2-(4-[4-{(2-(pyrrolidin-1-ylmethyl)-thien-3-yl)phenylsulfonyl}]piperazin-1-yl)-1,3-thiazole-5-carboxylic acid hydroxyamide] the “% inhibition HDAC @ 100 μM” value was 99%.
With `CN1CCN(Cc2cccc(-c3ccc(S(=O)(=O)N4CCN(c5ncc(C(=O)NO)s5)CC4)cc3)c2)CC1` [Example 284] the “% inhibition HDAC @ 100 μM” value was 100%.
In the case of `CCN(C)Cc1cccc(-c2ccc(S(=O)(=O)N3CCN(c4ncc(C(=O)NO)s4)CC3)cc2)c1` [Example 286, 2-{4-[(3′-[ethyl(methyl)amino]methyl]-1,1′-biphenylsulfonyl]piperazin-1-yl}-1,3-thiazole-5-carboxylic acid hydroxyamide], the “% inhibition HDAC @ 100 μM” value is reported as 99%.
`CC(C)N(C)Cc1cccc(-c2ccc(S(=O)(=O)N3CCN(c4ncc(C(=O)NO)s4)CC3)cc2)c1` [Example 287, 2-{4-[(3′-[isopropyl(methyl)amino]methyl]-1,1′-biphenylsulfonyl]-piperazin-1-yl}-1,3-thiazole-5-carboxylic acid hydroxyamide] was tested, and the “% inhibition HDAC @ 100 μM” value was 99%.
In the case of `O=C(NO)c1cnc(N2CCN(S(=O)(=O)c3ccc(-c4ccc(CN5CCCC5)s4)cc3)CC2)s1` [Example 288], the “% inhibition HDAC @ 100 μM” value is reported as 99%.
For `O=C(NO)c1cnc(N2CCN(S(=O)(=O)c3ccc(-c4sccc4CN4CCCC4)cc3)CC2)s1` [Example 289], the “% inhibition HDAC @ 100 μM” value was 99%.
In the case of `O=C(NO)c1cnc(N2CCN(S(=O)(=O)c3ccc(-c4cncnc4)cc3)CC2)s1` [Example 291, 2-[4-{(4-pyrimidine)benzenesulfonyl}-piperazin-1-yl]-thiazole-5-carboxylic acid hydroxyamide], the “% inhibition HDAC @ 100 μM” value is reported as 99%.
`CC(=O)Nc1ccc(-c2ccc(S(=O)(=O)N3CCN(c4ncc(C(=O)NO)s4)CC3)cc2)cc1` [Example 292] was tested, and the “% inhibition HDAC @ 100 μM” value was 100%.
For `O=C(NO)c1cnc(N2CCN(S(=O)(=O)c3ccc(-c4cccnc4)cc3)CC2)s1` [Example 293, 2-[4-{(3-pyrido)benzenesulfonyl}-piperazin-1-yl]-thiazole-5-carboxylic acid hydroxyamide], the “% inhibition HDAC @ 100 μM” value was 100%.
For `O=C(NO)c1cnc(N2CCN(S(=O)(=O)CCc3ccccc3)CC2)s1` [Example 294, 2-[4-(phenethylsulfonyl)piperazin-1-yl]-thiazole-5-carboxylic acid hydroxyamide], the “% inhibition HDAC @ 100 μM” value was 98%.
With `CN(C)Cc1ccc(S(=O)(=O)N2CCN(c3ncc(C(=O)NO)s3)CC2)cc1` [Example 295] the “% inhibition HDAC @ 100 μM” value was 98%.
In the case of `CN(C)Cc1cccc(S(=O)(=O)N2CCN(c3ncc(C(=O)NO)s3)CC2)c1` [Example 297], the “% inhibition HDAC @ 100 μM” value is reported as 99%.
`O=C(NO)c1cnc(N2CCN(S(=O)(=O)c3cccc(CN4CCCC4)c3)CC2)s1` [Example 298] was tested, and the “% inhibition HDAC @ 100 μM” value was 98%.
In the case of `O=C(NO)c1cnc(N2CCN(S(=O)(=O)c3ccc(CN4CCCC4)cc3)CC2)s1` [Example 305], the “% inhibition HDAC @ 100 μM” value is reported as 99%.
`O=C(NO)c1cnc(N2CCN(S(=O)(=O)c3ccc(CN4CCOCC4)cc3)CC2)s1` [Example 306] was tested, and the “% inhibition HDAC @ 100 μM” value was 99%.
